The source made the active and inactive calls.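 Rule for the calls: active = growth-inhibition EC50 no more than tenfold above the top tested dose; inconclusive = flat fit between 30% and 70% inhibition, or unreliable fit; inactive = EC50 more than tenfold above the top tested dose.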

As usually defined, the EC50 is the midpoint of the concentration-response curve.

The assay has as its system E. coli NEB5alpha growth, BacTiter-Glo luminescence, 4 h. Put plainly: Escherichia coli growth inhibition, dose response, counter-screen for MEX-5/POS-1 RNA-binding inhibitor project, luminescence, NEB5alpha (AID 1959;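 note: pUC19-transformed ampicillin-resistant cells grown in LB with ampicillin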). (The purpose of a counterscreen is to sort out artefacts and off-target activity.)
Consider `Cc1ccc(NCC(=O)N/N=C/c2ccc(C(=O)O)cc2)cc1`, for which the EC50 is > 11 µM (inactive).

Turning to `Cc1cc(/C=N/NC(=O)c2cccc(N(C)C)c2)c(C)n1-c1cc(C(=O)O)cc(C(=O)O)c1`, the EC50 was > 11 µM (inactive).

`NC(=O)C[n+]1cccc2ccccc21`: the EC50 was > 11 µM (inactive).

On to `CCCCN(C)C(=O)CCC(=O)NNc1nc2ccccc2c2nc(C)nn12`, for which the EC50 is > 11 µM (inactive).

In the case of `CCOC(=O)c1cc(-c2ccc(/C=C3/C(=O)NC(=O)C(C#N)=C3C)o2)ccc1Cl`, the EC50 was > 11 µM (inactive).

On to `CCN1CCN(C(=O)c2ccc3c(=O)n(Cc4ccccc4OC)c(=S)[nH]c3c2)CC1`, for which the EC50 was > 11 µM (inactive).

`O=C1C=C(Nc2cccc3cccnc23)c2ccccc2C1=O`: the EC50 was > 11 µM (inactive).

On to `CC1=CC(C)(C)N2C(=O)C3(C(C#N)=C(N)OC4=C3C(=O)CC(C)(C)C4)c3cccc1c32` (centres undefined), for which the EC50 was > 11 µM (inactive).

Consider `c1ccc(-c2cn3nc4c(nc3n2)CCCC4)cc1`, for which the EC50 was > 11 µM (inactive).

`Cc1cc(C=C2C(=O)NC(=O)NC2=O)c(C)n1-c1cccnc1`: the EC50 was > 11 µM (inactive).

`Cn1cc(C=C2C(=O)NC(=O)NC2=O)c2ccccc21`: the EC50 is > 11 µM (inactive).

For `O=C1NC(=O)C(=Cc2cn(CCOc3ccc4c(c3)OCO4)c3ccccc23)C(=O)N1`, the EC50 is > 11 µM (inactive).

Take `CSc1ccc(C2C(C(=O)c3ccco3)=C(O)C(=O)N2c2nnc(SC)s2)cc1` (centres undefined): the EC50 was > 11 µM (inactive).

Take `Oc1ccc(-c2cnns2)c(O)c1`: the EC50 was > 11 µM (inactive).

Turning to `Cc1ccccc1-n1c(O)c(/C=N/NC(=O)c2ccccc2O)c(=O)[nH]c1=S`, the EC50 is > 11 µM (inactive).

For `Cc1ccc(CS(=O)Cc2ccc(C(=O)N3CCN(c4ccccc4)CC3)o2)cc1` (centres undefined), the EC50 was > 11 µM (inactive).

In the case of `CCOc1cccc(C2C(C(=O)c3ccc(C)o3)=C(O)C(=O)N2c2nccs2)c1` (centres undefined), the EC50 was > 11 µM (inactive).

For `O=C1N=C(N2CCCCC2)S/C1=C/C1=Cc2ccccc2OC1`, the EC50 is > 11 µM (inactive).

Regarding `COc1cc(C(c2c(C)[nH][nH]c2=O)c2c(C)[nH][nH]c2=O)cc([N+](=O)[O-])c1O`, the EC50 is > 11 µM (inactive).

`O=C(O)Cc1ccc(O)c(O)c1`: the EC50 is > 11 µM (inactive).

For the compound `CCC(C)(C)NC(=O)C(c1cccn1C)N(C(=O)Cn1nnc2ccccc21)c1ccc(OC)cc1` (centres undefined), the EC50 was > 11 µM (inactive).

As for `O=C(Cc1nc2ccccc2[nH]c1=O)c1ccccc1`, the EC50 was > 11 µM (inactive).

As for `COc1ccc(NC(=O)c2ccc(NCCCN3CCOCC3)c([N+](=O)[O-])c2)cc1`, the EC50 was > 11 µM (inactive).

In the case of `COC(=O)CCC(=O)OC1(C)C(=O)C2=COC(c3ccc(OC)cc3)=CC2=C(Br)C1=O` (centres undefined), the EC50 was > 11 µM (inactive).

Consider `Cc1cccc(N(C)S(=O)(=O)c2nnc(NC(=O)c3ccco3)s2)c1`, for which the EC50 was > 11 µM (inactive).

Consider `O=C(/C=C/c1ccco1)NC(=S)NNC(=O)c1ccco1`, for which the EC50 is > 11 µM (inactive).

For the compound `COc1cccc(C2C3CN(C)CC=C3C(C#N)=C(N)C2(C#N)C#N)c1OC` (centres undefined), the EC50 is > 11 µM (inactive).

Regarding `CCOc1cc(/C=C2/C(=O)ON=C2C)ccc1OCc1ccccc1F`, the EC50 is > 11 µM (inactive).

As for `O=C(NNC(=S)NC(=O)c1ccccc1[N+](=O)[O-])c1ccccc1O`, the EC50 is > 11 µM (inactive).

As for `COc1ccc(N2C(=O)/C(=C/c3ccc(N(C)C)o3)C(=O)NC2=S)cc1`, the EC50 is > 11 µM (inactive).

On to `O=c1[nH]c(=O)n(-c2cccc(Cl)c2)c(O)c1/C=N/c1ccccn1`, for which the EC50 is > 11 µM (inactive).

Take `N#CC(C#N)=Cc1ccc(-c2ccc(S(=O)(=O)N=C(N)N)cc2)o1`: the EC50 was > 11 µM (inactive).

Consider `O=C(N/N=C/c1cc(Cl)cc([N+](=O)[O-])c1O)c1ccc2c(c1)OCO2`, for which the EC50 was > 11 µM (inactive).

Consider `COc1ccc(C2C(C#N)=C(N)OC3=C2C(=O)CC(C)(C)C3)cc1OC` (centres undefined), for which the EC50 is > 11 µM (inactive).

On to `Cc1ccc(Cn2c(=N)c(C(=O)NCC3CCCO3)cc3c(=O)n4ccccc4nc32)cc1` (centres undefined), for which the EC50 was > 11 µM (inactive).

With `O=c1[nH]c2c(s1)C=Nc1ccccc1N2`, the EC50 was > 11 µM (inactive).

Turning to `CCOC(=O)Cc1csc(NC(=O)c2sc3nc4cc(C)ccc4cc3c2N)n1`, the EC50 is > 11 µM (inactive).

For the compound `Cc1ccc2[nH]c(O)c(N=Nc3ccccc3C)c2c1`, the EC50 was > 11 µM (inactive).

Consider `CCOC(=O)c1cc(CC)sc1/N=C/c1c(O)[nH]c(=S)[nH]c1=O`, for which the EC50 is > 11 µM (inactive).

Turning to `COC(=O)Cn1cc(C=C2C(=O)N(C)C(=O)N(C)C2=O)c2ccccc21`, the EC50 is > 11 µM (inactive).

For `Cn1c(=O)c2[nH]c(N=NNc3ccccc3F)nc2n(C)c1=O`, the EC50 was > 11 µM (inactive).

For `O=c1[nH]c(=O)n(CC2CCCO2)c(O)c1/C=C1\C=Nc2ccccc21` (centres undefined), the EC50 was > 11 µM (inactive).

Turning to `C=CCOc1ccc(C2C(C(=O)c3cccs3)=C(O)C(=O)N2c2nnc(C)s2)cc1` (centres undefined), the EC50 is > 11 µM (inactive).

Turning to `N#CC1=C(N)OC2=C(C(=O)CCC2)[C@]12C(=O)N(CC(N)=O)c1ccccc12`, the EC50 is > 11 µM (inactive).

With `Cc1ccc(/C=C/C(=O)O)cc1S(=O)(=O)N1CCCCC1`, the EC50 is > 11 µM (inactive).

Consider `CC(=O)N1CCN(c2ccc(N=Cc3c(O)n(Cc4ccccc4)c(=O)[nH]c3=O)cc2)CC1`, for which the EC50 is > 11 µM (inactive).

Regarding `COc1ccc(C(=O)/C=C/Nc2ccc([N+](=O)[O-])cc2C)c(OC)c1`, the EC50 is > 11 µM (inactive).

In the case of `Cc1cccc(NC(=O)/C(C#N)=C\c2cc(C)n(-c3ccc(C(=O)O)cc3)c2C)c1`, the EC50 is > 11 µM (inactive).

For the compound `Cn1c(C(=O)NCCCN2CCOCC2)cc2c(=O)n(C)c3ccccc3c21`, the EC50 was > 11 µM (inactive).

Consider `COc1cc(OC)c(C2C(C#N)=C(N)OC3=C2C(=O)CC(C)C3)cc1OC` (centres undefined), for which the EC50 was > 11 µM (inactive).

As to `COc1ccccc1-n1c(O)c(/C=C2\C=Nc3ccccc32)c(=O)[nH]c1=O`, the EC50 is > 11 µM (inactive).

On to `COC(=O)c1ccc(-n2c(C)cc(C(=O)COC(=O)CNS(=O)(=O)c3ccc(C)cc3)c2C)cc1`, for which the EC50 is > 11 µM (inactive).

With `CC(=O)c1c(C(C)=O)c(C)n(-c2ccc(C(=O)O)cc2)c1C`, the EC50 is > 11 µM (inactive).

In the case of `COC(=O)[C@@]1(C#N)[C@@H]2C=CC(C(C)=O)=CN2[C@@H](C(N)=O)[C@@H]1c1ccc(F)cc1`, the EC50 was > 11 µM (inactive).

With `O=C1/C(=N\S(=O)(=O)c2cccs2)C([n+]2ccc(CCCc3ccccc3)cc2)=C([O-])c2ccccc21`, the EC50 was > 11 µM (inactive).

Take `N#Cc1ccccc1CN1C(=O)S/C(=C/c2cccn2-c2ccc(C(=O)O)cc2)C1=O`: the EC50 was > 11 µM (inactive).

On to `O=C(C1=NN(c2ccccc2)C2C(=O)N(c3ccccc3Cl)C(=O)C12)c1ccccc1` (centres undefined), for which the EC50 is > 11 µM (inactive).

In the case of `COc1cc(C2C(C#N)=C(N)OC3=C2C(=O)CCC3)c([N+](=O)[O-])cc1OC` (centres undefined), the EC50 was > 11 µM (inactive).

For `CCn1c(SCc2ccc(C)cc2)nnc1C1CCN(S(=O)(=O)c2ccc(OC)cc2)CC1`, the EC50 is > 11 µM (inactive).

Source of the values: PubChem BioAssay AID1959 (Broad Institute, 2009).
